The conditions of series [1]: human, in vivo; cited from earlier work.
Series [2] deals with TLR4. Conditions: cited from earlier work.
Series [3] concerns B16 melanoma. Put plainly: Tumor treatment assay, palpable B16 model. The series is classed as in vivo, C57BL/6 mice. Particulars: palpable B16, single subcutaneous treatment in contralateral limb.
Procedure: IDC-1005 was incubated with irradiated GVAX cells at 4 deg C. for 0.5-2, hours prior to inoculation. GVAX formulated with IDC-1005 is labeled as TEGVAX.
Tumor treatment assay: C57BL/6 mice were injected with 1-5×10^4 B16 in the footpads. Once palpable tumor developed (5-10 days), 100 μl of 10^6 B16 GVAX formulated with or without IDC-1005 were injected subcutaneously into the contralateral limb. The control groups were injected with vehicle. For all these experiments, 10 mice were used per group. […] For all the vaccines, GM-CSF was titered to ensure that GM-CSF expression level ranged from 50-500 ng/10^6 Cells/24 hours. Tumor was measured daily.

For `CCOCc1nc2c(N)nc3ccccc3c2n1CC(C)(C)O` [R848, resiquimod], the “safety / toxicity in patients” value in series [1] was “passed phase 1 trials for safety”.

For `CCCCCCCCCCCCCC(=O)O[C@H](CCCCCCCCCCC)CC(=O)O[C@@H]1[C@@H](NC(=O)C[C@H](CCCCCCCCCCC)OC(=O)CCCCCCCCCCCCC)[C@H](OC[C@H]2O[C@H](O)[C@H](NC(=O)C[C@H](O)CCCCCCCCCCC)[C@@H](OC(=O)C[C@H](O)CCCCCCCCCCC)[C@@H]2O)O[C@H](CO)[C@H]1OP(=O)(O)O` [GLA, glucopyranosyl lipid A], in series [2] (murine and human dendritic cells, in vivo and in vitro, versus MPL), the “TH1 type cytokines on activation of dendritic cells” value is reported as “more potent in terms of increasing multiple TH1 type cytokines”. The TLR4 agonist strength entry in series [2] (versus monophosphoryl lipid A) was “stronger TLR4 agonist than the monophosphyl lipid A”. The “tumor growth rate / in vivo anti-tumor response” value in series [3] is recorded as “no in vivo anti-tumor effects”. Take ipilimumab: anti-CTLA-4 antibody: the “safety / toxicity in patients” value in series [1] is “grade 3-4 toxicity”.
